Reference: patent US20150368681A1, “Dehydroascorbic Acid Process” (priority 2014, published 2015)

Assay: Storage stability of DHAA in oxidized zucchini puree product, DHAA concentration by TCEP differential absorbance method
Assay type: physicochemical
Protocol: Four zucchini fruits about 6-8 inches long were purchased at a local grocery store. The shelf labeling indicated the fruits were a product of Mexico, as might be expected in Utah during the month of November when this experiment was conducted. Thus the fruit was not locally-grown and probably older (stored longer since picked) than known fresh-picked fruit. It is known that the AAO activity of zucchini fruit decreases during storage after being picked. The epicarp and outer portions of the mesocarp were peeled from the fruits, to the extent that approximately one-half of the weight of each fruit was included in the peelings. 300 grams of peelings were added to a blender with 100 grams purified water and pureed. 20 grams of the puree was removed and reserved for a “blank”. To the remaining puree (380 grams) was added 1.4 grams AA (as pure crystals approximately US mesh size 20-40) and the puree was mixed in the blender about 1 minute. The pH of the puree was measured and found to be 5.2, and a redox test indicated AA reducing activity in the puree. The puree was allowed to stand with periodic brief mixing for 35 minutes. […] A 20 gram portion was removed for a “test.” The blank and test solutions were centrifuged to remove the pulp so that pulp-free solutions could be spectrophotometrically analyzed. 25 uL of each of these solutions were diluted in 10 mL of 0.15 M phosphoric acid diluent, and the absorbance of each was determined using a UV spectrometer at 262 nm wavelength blanked against diluent. 2 mL of each dilution were combined with 2 mL of a TCEP reagent, incubated one hour, and then the absorbance at 262 nm of these solutions were determined as above (TCEP reagent reduces DHAA in the solution to AA; absorbance measurements at wavelengths where AA strongly absorbs, before and after treatment with TCEP, is a method known to practitioners in the art to quantify DHAA concentration by the differential absorption principle). The following absorption values were obtained (TCEP values are corrected for the X2 dilution):
One whole zucchini fruit weighing 235 grams was pureed in 120 mL water in a blender. The pH of the initial zucchini puree was 6.5. At time 0 minutes, 1.0 gram crystalline AA was added. After mixing 30 seconds, the pH was 5.0. At the times indicated in the table below, pH was recorded, iodine indicator redox result was recorded, and/or additional AA in the amounts indicated were added after testing the pH and redox status. The zucchini puree was continuously mixed in the blender during the entire time, and a cap in the top of the blender was left open to allow fresh air to be drawn into the vortex of the puree in the blender.
The product was split into three equal parts. Part 1 was kept in a closed container at room temperature. Part 2 was kept in a closed container at standard refrigerator temperature of 4 degrees C. Part 3 was kept in a closed container at common freezer temperature of minus 20 degrees C. Part 1 was tested immediately for DHAA concentration by the TCEP method previously discussed, and then after overnight storage (approx. 12 hours); Part 2 was tested after overnight storage (approx. 12 hours), and then after 13 days; Part 3 was tested after 13 days. Recovery column is the actual concentration divided by the maximum expected DHAA concentration of 2.4%, expressed as percent.

O=C1O[C@H]([C@@H](O)CO)C(=O)C1=O [DHAA, dehydroascorbic acid]
DHAA Concentration (Example 3 product, Part 1, tested immediately, storage 0 hours): 2.27%
DHAA Concentration (Part 1, closed container, room temperature, 12 hours): 1.68%
DHAA Concentration (Part 2, refrigerator 4 degrees C, 12 hours): 2.14%
DHAA Concentration (Part 2, refrigerator 4 degrees C, 312 hours (13 d)): 1.27%
DHAA Concentration (Part 3, freezer minus 20 degrees C, 312 hours (13 d)): 2.10%
Loss of DHAA on frozen storage (product stored frozen for at least 13 days): minimal loss
